Values quoted from earlier work as cited in patent US20040029723A1, “Novel aminophosphonium compounds” (Clariant GmbH, priority 1999, published 2004).

Conditions: background statement, no test or data described

In the case of `CCN(CC)[P+](N(CC)CC)(N(CC)CC)N(CC)CC.[Br-]` [Tetrakis(diethylamino)phosphonium Bromide], the dermal toxicity is listed as “very high”.
